Columns and labels:
[1] = xn = mol fraction of the nth substance listed; details: x2 = 0; for mass density: 101 kPa, Liquid
[2] = for mass density: 101 kPa, Liquid

Cc1ccccc1 [toluene] + CC(C)=O
[1]
Details	mass density [kg/m3]	surface tension liquid-gas [mN/m]
288.15 K	871.41	28.9
293.15 K	866.77	–
298.15 K	862.12	27.76
303.15 K	857.46	–
308.15 K	852.78	26.77
313.15 K	848.08	–
318.15 K	843.37	25.72
323.15 K	838.64	–
328.15 K	833.9	24.27

Cc1ccccc1 [toluene]
[2]
Details	mass density [kg/m3]	surface tension liquid-gas [mN/m]
288.15 K	871.41	28.9
293.15 K	866.77	–
298.15 K	862.12	27.76
303.15 K	857.46	–
308.15 K	852.78	26.77
313.15 K	848.08	–
318.15 K	843.37	25.72
323.15 K	838.64	–
328.15 K	833.9	24.27

O [water] + CC(C)=O
[1], Pendant drop shape
Details	surface tension liquid-gas [mN/m]
288.15 K	73.49
298.15 K	71.98
308.15 K	70.41
318.15 K	68.78
328.15 K	67.09

[1]
Details	mass density [kg/m3]
323.15 K	988.01
328.15 K	985.69

CC(C)=O [acetone]
[2], Pendant drop shape
Details	surface tension liquid-gas [mN/m]
288.15 K	24.34
298.15 K	23.02
308.15 K	21.72
318.15 K	20.38
328.15 K	19.15

[2]
Details	mass density [kg/m3]
288.15 K	795.65
293.15 K	790.04
298.15 K	784.33
303.15 K	778.57
308.15 K	772.76
313.15 K	766.91
318.15 K	760.99
323.15 K	755.02
328.15 K	748.98

Source: the NIST ThermoML archive (doi:10.1021/je7000182)
